# Values quoted from earlier work in US5122608A, “Method for the preparation of substituted and unsubstituted 2,3-pyridine and quinolinedicarboxylic acids” (priority 1990, dated 1992).
# Details: ionization constant; representative mineral and organic acids
row,SMILES,pKa
1,O=C(O)C(Cl)(Cl)Cl [Trichloroacetic],0.5
2,CCc1ccc(S(=O)(=O)O)cc1 [p-Ethylbenzene sulfonic],0.9
